The values that follow come from publication PMC6780165, “Verruculosins A–B, New Oligophenalenone Dimers from the Soft Coral-Derived Fungus Talaromyces verruculosus” (Marine Drugs, 2019).

One data set concerns the target T1, CDC25B (Homo sapiens, UniProt P30305).
T1 sequence (P30305 1-580): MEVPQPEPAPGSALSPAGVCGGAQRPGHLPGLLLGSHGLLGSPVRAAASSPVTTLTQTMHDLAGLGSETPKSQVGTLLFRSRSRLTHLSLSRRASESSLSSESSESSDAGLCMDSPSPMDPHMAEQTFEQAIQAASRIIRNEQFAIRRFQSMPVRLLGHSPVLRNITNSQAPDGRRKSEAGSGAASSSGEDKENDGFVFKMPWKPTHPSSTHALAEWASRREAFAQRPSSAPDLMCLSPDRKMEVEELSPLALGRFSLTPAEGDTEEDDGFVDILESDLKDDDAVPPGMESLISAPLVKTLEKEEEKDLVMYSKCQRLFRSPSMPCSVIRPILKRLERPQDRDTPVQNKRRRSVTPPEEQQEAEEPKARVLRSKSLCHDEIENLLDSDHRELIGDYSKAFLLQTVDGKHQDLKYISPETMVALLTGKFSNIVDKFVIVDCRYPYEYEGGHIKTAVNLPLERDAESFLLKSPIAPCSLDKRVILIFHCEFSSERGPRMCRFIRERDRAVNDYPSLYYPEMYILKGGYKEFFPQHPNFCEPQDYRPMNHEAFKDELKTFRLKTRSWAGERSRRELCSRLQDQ
Nature of the data set: CDC25B enzymatic activity assay (OMFP dephosphorylation). The class given is biochemical. As to conditions: OMFP substrate 10 μM, 100 nM CDC25B, 30 °C, pH 8.0; read-out: Anti-CDC25B IC50 (µM) ± SD. On the procedure:
The enzymatic activity of the CDC25B was determined at 30 °C by monitoring the dephosphorylation of 3-O-methylfluorescein phosphate (OMFP), which was used as a substrate for the CDC25B and can be monitored at a 535 nm emission wavelength and 485 nm excitation wavelength in the EnVisionmultilabel plate reader. The assay was measured in a 100 μL mixture system containing 50 mM Tris-HCl, pH 8.0, 50 mM NaCl, 10 μM OMFP, 100 nM CDC25B, 1 mM dithiothreitol (DTT), 1 mM ethylene diamine tetraacetic acid (EDTA), 1% glycerin, and 2 mg/L compound. The initial rate of the dephosphorylation was determined using the early linear region of the enzymatic reaction kinetic curve. DMSO and Na3VO4 were used as negative and positive controls, respectively.

The subject of data set [1] is human cervical cancer (Hela) cells. Further details: method as in ref 8, ref 9. To be noted: cited from earlier work.
Data set [2] has as its system human non-small cell lung carcinoma (NCL-H460) cells. Further details: method as in ref 8, ref 9. To be noted: cited from earlier work.
Data set [3] relates to human breast cancer (MCF-7) cells. Further details: method as in ref 8, ref 9. To be noted: cited from earlier work.
The target in another data set is EGFR tyrosine kinase (Homo sapiens, UniProt P00533). Description: EGFR tyrosine kinase inhibitory activity (ELISA). As to conditions: poly(Glu, Tyr)4:1 substrate, 10 μM ATP, 60 min at 37 °C, read-out: Anti-EGFR IC50 (µM) ± SD. The class given is biochemical. On the technique in general: In an ELISA, binding on a coated surface is turned into a signal by an enzyme label.
EGFR tyrosine kinase, sequence (P00533 25-1210): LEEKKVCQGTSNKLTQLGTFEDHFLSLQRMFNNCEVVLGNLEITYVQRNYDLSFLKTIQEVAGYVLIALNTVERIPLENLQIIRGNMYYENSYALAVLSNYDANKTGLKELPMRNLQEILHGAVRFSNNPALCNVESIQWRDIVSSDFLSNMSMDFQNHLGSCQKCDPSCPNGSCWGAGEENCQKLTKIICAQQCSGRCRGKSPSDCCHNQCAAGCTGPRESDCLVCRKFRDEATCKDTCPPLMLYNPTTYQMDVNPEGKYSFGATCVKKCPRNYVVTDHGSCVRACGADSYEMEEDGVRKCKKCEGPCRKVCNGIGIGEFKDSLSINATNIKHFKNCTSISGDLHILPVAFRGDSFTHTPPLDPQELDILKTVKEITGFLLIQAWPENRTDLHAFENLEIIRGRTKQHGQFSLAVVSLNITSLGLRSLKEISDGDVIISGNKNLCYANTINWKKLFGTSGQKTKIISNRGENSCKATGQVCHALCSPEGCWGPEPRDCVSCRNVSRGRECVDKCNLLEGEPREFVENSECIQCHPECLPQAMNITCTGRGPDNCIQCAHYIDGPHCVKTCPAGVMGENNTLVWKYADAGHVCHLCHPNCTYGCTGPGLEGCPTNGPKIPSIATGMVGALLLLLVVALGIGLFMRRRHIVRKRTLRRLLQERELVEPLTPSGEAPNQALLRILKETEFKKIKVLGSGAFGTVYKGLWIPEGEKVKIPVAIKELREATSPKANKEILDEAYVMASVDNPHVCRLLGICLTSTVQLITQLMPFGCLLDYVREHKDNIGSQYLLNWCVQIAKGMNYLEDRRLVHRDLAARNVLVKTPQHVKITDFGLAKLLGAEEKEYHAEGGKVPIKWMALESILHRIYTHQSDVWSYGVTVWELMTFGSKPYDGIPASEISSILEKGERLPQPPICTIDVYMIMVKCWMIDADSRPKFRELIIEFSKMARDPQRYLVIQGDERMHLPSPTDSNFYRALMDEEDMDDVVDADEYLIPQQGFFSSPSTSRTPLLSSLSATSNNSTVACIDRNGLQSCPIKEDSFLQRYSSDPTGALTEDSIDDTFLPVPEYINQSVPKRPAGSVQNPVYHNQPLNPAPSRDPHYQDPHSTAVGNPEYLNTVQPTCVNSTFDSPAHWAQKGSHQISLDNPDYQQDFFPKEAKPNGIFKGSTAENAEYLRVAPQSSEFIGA

Data set [4] concerns murine leukemia L-1210 cells. Set-up: method as in ref 5, ref 6. To be noted: cited from earlier work.
Data set [5] relates to mitochondrial respiration. Set-up: method as in PMID 7122988. As to conditions: cited from earlier work.

Method for EGFR tyrosine kinase: The EGFR tyrosine kinase inhibitory activity was tested using enzyme-linked immunosorbent assay (ELISA). The compounds were dissolved in dimethyl sulfoxide (DMSO) buffer solution and were then distributed to a 96-well plate pre-coated with poly(Glu, Tyr)4:1 as a substrate. Each well was treated with 50 μL of 10 μM ATP solution diluted with reaction buffer and the reaction was started by the addition of EGFR tyrosine kinase. After 60 min of incubation at 37 °C, the plate was washed three times with phosphate buffered saline containing 0.1% Tween 20 (PBST). Next, antiphosphotyrosine (PY99) antibody 100 μL was added. After incubation for 30 min at 37 °C, the plate was washed three times and goat anti-mouse IgG horseradish peroxidase was added. The plate was reincubated at 37 °C for 30 min and washed as before. Lastly, 100 μL of color development solution was added and the plate was incubated at room temperature until color emerged. The reaction was terminated by adding 50 μL of 2 M H2SO4, and the absorbance was measured on the Molecular Devices SpectraMax 190 microplatereader at 490 nm [20]. The known EGFR inhibitor, afatibib, was utilized as a positive control, and 0.1% (v/v) DMSO was used as a negative control.

On to `[Na+].[Na+].[Na+].[O]=[V]([O-])([O-])[O-]` [Na3VO4, reference compound], for which the IC50 (as a rule, the concentration at which inhibition is half-maximal) on CDC25B came out at 0.52 ± 0.02 µM.

Take Bascillosporin H: in data set [1], the “activity against Hela cells (in words)” value is listed as “moderately active”. Moreover, the “cytotoxicity against NCL-H460 cells (in words)” value in data set [2] is listed as “moderately active”. In addition, the “cytotoxicity against MCF-7 cells (in words)” value in data set [3] is reported as “moderately active”.

Bascillosporin C: in data set [1], the “activity against Hela cells (in words)” value is given as “moderately active”. Further, the “cytotoxicity against NCL-H460 cells (in words)” value in data set [2] is given as “moderately active”. Further, in data set [3], the “cytotoxicity against MCF-7 cells (in words)” value is “moderately active”.

`COC(=O)CC1OC(=O)c2c(O)cc(C)c3c2C1=C(O)C1C24COC(=O)c5c(O)cc(C)c(c52)C(=O)C(C4OC(C)=O)C31OC` (centres unmarked) [Compound 2, verruculosin B]: the IC50 at EGFR tyrosine kinase amounted to 1.22 ± 0.53 µM.

Take `COC1OC(=O)c2c(O)cc(C)c3c4c(c(O)c1c23)C12COC(=O)c3c(O)cc(C)c(c31)C(=O)C4C2OC(C)=O` (centres unmarked) [Compound 3, bacillisporin F]: the results for the IC50 at CDC25B and on EGFR tyrosine kinase were 0.4 ± 0.02 µM and 4.41 ± 2.32 µM, respectively.

In the case of Bascillosporin A, in data set [2], the “cytotoxicity against NCL-H460 cells (in words)” value is “high cytotoxicity”. The “cytotoxicity against MCF-7 cells (in words)” value in data set [3] was “high cytotoxicity”.

Consider `COC12c3c(C)cc(O)c4c(=O)occ(c34)C(=O)C1C13COC(=O)c4c(O)cc(C)c(c41)C(=O)C2C3OC(C)=O` (centres unmarked) [Compound 4, duclauxin], for which, in data set [4], the “activity against murine leukemia L-1210 cells (in words)” value was “highly active”. For the same molecule, the IC50 came out at 0.75 ± 0.18 µM at CDC25B and 0.95 ± 0.64 µM on EGFR tyrosine kinase. The “inhibitory effects on mitochondrial respiration (in words)” value in data set [5] is reported as “strong inhibitory effects”.

For the molecule `COC12c3c(C)cc(O)c4c3C3=C(OC(C)(O)CC3OC4=O)C1C13COC(=O)c4c(O)cc(C)c(c41)C(=O)C2C3OC(C)=O` (centres unmarked) [Compound 1, verruculosin A], the IC50 at CDC25B stood at 0.38 ± 0.03 µM; on EGFR tyrosine kinase, 0.92 ± 0.25 µM.

`CC(=O)OC1C2C(=O)c3c(C)cc(O)c4c3C1(COC4=O)c1c(O)c3c4c(c(O)cc(C)c4c12)C(=O)OC3=O` (centres unmarked) [Compound 5, xenoclauxin]: the IC50 on CDC25B is 0.26 ± 0.06 µM; on EGFR tyrosine kinase, 0.24 ± 0.17 µM.

Turning to Bascillosporin B [Bascillosporins B], the “activity against Hela cells (in words)” value in data set [1] is on record as “moderately active”. Besides, the “cytotoxicity against NCL-H460 cells (in words)” value in data set [2] is “moderately active”. Besides, in data set [3], the “cytotoxicity against MCF-7 cells (in words)” value is recorded as “moderately active”.
